Columns and labels:
[1] = tested on: osteoblasts and osteocytes; test: osteoblast and osteocyte apoptosis in vertebral bone of ovariectomized mice (TUNEL); format: in vivo, Swiss Webster mice
Excerpt: The degree of apoptosis of osteoblasts and osteocytes in murine vertebral bone as a function of estrogen deficiency was examined. Swiss Webster mice (four months old) were ovariectomized. Twenty-eight days later, the animals were sacrificed, vertebrae were isolated, fixed and embedded, and then undecalcified in methacrylate.

[2] = degree of sulfation and glucuronidation (other protocols); format: in vitro ADME; conditions: compared to diols
Excerpt: Despite that, the compound androst-5-ene-3β,7β,16α,17β-tetrol was active as described above when administered orally to mice in a diabetes treatment model. […] This activity may have arisen at least partly from the low metabolism of tetrol compounds in vivo.

[3] = tested on: human MG-63 osteosarcoma cell line; test: reversal of dexamethasone effects in MG-63 osteoblasts; format: cell-based; conditions: 30 nM dexamethasone; compound concentration stated with each value (17α-ethynyl triol: 1 nM)
EAE = test: PLP-induced EAE, treatment from clinical onset; format: in vivo, female SJL mice; conditions: 0.1 mg q.d. po from clinical onset
Description: The protocol for conducting the EAE animal model was described in (D. Auci et. al., Ann. NY. Acad. Sci. USA, 1051:730-42, 2005). Female SJL mice (6-8 week old, average body weight of 25 g) obtained from Charles-River were kept under standard laboratory conditions (non specific pathogen germ free) with ad libitum food and water and were allowed to adapt one week to their environment before commencing the study. […] EAA was induced with 200 μL of a 1:1 emulsion of 75 μg proteolipid protein (PLP) and 6 mg/mL Mycobacterium tuberculosis H37RA in complete Freund's adjuvant (CFA). The 200 μL injection was divided among four sites that drained into the auxiliary and inguinal lymphnodes. Pertussis toxin was used as a co-adjuvant and was administered i.p. at 200 ng/mouse on day zero and day two post immunization. Groups were treated with 0.1 mg of compound in 100 μL vehicle, or with vehicle alone, q.d. po (oral gavage) starting at clinical onset of disease and continuing through to day 30 post immunization. […] Clinical grading was carried out by an observer unaware of the treatment: 0=no illness, 1=flaccid tail, 2=moderate paraparesis, 3=severe paraparesis, 4=moribund state, 5=death.

[4] = tested on: LPS-induced acute lung inflammation; test: LPS-induced lung injury; format: in vivo, C57/BL6 mice; conditions: 40 mg/Kg orally; 48 h after LPS
[5] = tested on: insulin sensitivity in db/db diabetic mice; test: hyperinsulinemic-euglycemic clamp; format: in vivo
Description: Glucose lowering in 8 week old db/db diabetic mice. The hyperinsulinemic-euglycemic clamp protocol was conducted to measure insulin sensitivity in vivo. In this procedure, insulin was administered to raise the insulin concentration while glucose was infused to maintain euglycemia or a fixed, normal blood glucose level (about 180 mg/dL). […] The objective of this protocol was to investigate characterize the capacity of 17α-ethynylandrost-5-ene-3β,7β,17β-triol and androst-5-ene-3β,7β,16α,17β-tetrol to ameliorate systemic insulin resistance and improve whole body glucose disposal in the hyperinsulinemic-euglycemic clamp model. The degree of skeletal muscle and hepatic insulin sensitivity and tissue specific glucose uptake were also assessed. The animals were dosed daily by oral gavage for 14 days. On Day 10 of treatment catheters were implanted in the carotid artery and jugular vein. On the day of the clamp (day 14) the compound was administered at 7:30 am.
Body weight and glucose concentration were assessed on day 0, 7 and day 14 of treatment. On day 14 a euglycemic hyperinsulinemic clamp was performed. Food was removed at 7:30 am at 10:30 a primed continuous infusion of [3-^3H]-glucose (0.05 μCi/min). A baseline blood sample was taken at 12:50 (−10 min) and at 1:00 (0 min) a euglycemic hyperinsulinemic clamp was initiated by administering 10 mU /kg/min of insulin. Glucose was infused at a variable rate to clamp the glucose concentration at ˜180 mg/dl. A bolus of [^14C]-2deoxyglucose was given at the end of the study to assess tissue specific glucose uptake. Plasma ^14C 2-deoxyglucose was assessed at 122, 125, 130, 135, 145 min. […]
Analysis was conducted as follows. Plasma samples were deproteinized with Ba(OH)2 (0.3 N) and ZnSO4 (0.3 N), dried and radioactivity was assessed on scintillation counter (Packard TRICARB 2900 TR, Meriden, Conn.). […] One supernatant was directly counted to determine radioactivity from both [14C] […] A second aliquot was treated with Ba(OH)2 and ZnSO4 to remove ^14C DGP and any tracer incorporated into glycogen and then counted to determine radioactivity from free [^14C]DG(2). [^14C]DGP was calculated as the difference between the two aliquots. […] Rg, an index of tissue specific glucose uptake was calculated as previously described (E.W. Kraegen et al., Am. J. Physiol., 248:E353-E362, 1985). Whole body glucose turnover was calculated as the ratio of the ^3H glucose infusion rate (dpm/kg/min) and arterial plasma glucose specific activity (dpm/mg). Endogenous glucose production was calculated as the difference between the whole body glucose turnover and the exogenous glucose infusion rate (R. N. Bergman et al., Endocr. Rev., 6:45-86, 1985).

estrogen receptor-β = estrogen receptor-β (Homo sapiens, UniProt Q92731); test: interaction with sex hormone receptor; format: binding
Chain of estrogen receptor-β (Q92731 whole entry, species assumed): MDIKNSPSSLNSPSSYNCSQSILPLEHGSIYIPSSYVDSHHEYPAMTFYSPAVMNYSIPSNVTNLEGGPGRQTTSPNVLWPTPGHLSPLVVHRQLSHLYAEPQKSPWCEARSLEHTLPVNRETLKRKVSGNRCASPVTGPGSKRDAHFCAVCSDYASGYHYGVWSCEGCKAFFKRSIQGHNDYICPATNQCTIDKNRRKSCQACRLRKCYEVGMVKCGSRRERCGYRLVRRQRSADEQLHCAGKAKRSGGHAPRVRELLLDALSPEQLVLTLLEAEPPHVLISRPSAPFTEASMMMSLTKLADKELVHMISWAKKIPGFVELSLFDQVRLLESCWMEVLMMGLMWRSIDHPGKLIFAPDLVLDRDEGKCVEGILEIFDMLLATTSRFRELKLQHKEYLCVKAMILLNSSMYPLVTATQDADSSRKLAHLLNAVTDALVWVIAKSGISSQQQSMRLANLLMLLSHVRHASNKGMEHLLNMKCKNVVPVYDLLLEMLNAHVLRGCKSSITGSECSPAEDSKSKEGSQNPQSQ

estrogen receptor-α = estrogen receptor-α (Homo sapiens, UniProt P03372); test: interaction with sex hormone receptor; format: binding
Chain of estrogen receptor-α (P03372 whole entry): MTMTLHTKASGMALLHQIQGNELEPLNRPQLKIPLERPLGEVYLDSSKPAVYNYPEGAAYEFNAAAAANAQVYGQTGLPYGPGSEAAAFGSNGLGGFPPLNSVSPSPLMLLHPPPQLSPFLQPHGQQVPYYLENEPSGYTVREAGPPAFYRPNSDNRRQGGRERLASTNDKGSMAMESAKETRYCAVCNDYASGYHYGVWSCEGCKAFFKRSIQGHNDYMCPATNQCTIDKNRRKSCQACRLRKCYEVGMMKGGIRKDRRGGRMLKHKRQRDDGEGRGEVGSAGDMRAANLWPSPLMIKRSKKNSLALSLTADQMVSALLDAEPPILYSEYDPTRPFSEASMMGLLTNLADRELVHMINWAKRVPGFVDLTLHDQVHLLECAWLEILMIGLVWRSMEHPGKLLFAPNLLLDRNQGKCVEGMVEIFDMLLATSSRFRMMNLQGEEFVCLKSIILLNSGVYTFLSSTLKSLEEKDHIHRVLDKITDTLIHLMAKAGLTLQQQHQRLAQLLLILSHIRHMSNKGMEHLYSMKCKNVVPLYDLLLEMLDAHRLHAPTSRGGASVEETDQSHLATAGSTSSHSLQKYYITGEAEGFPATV

[6] = tested on: bone marrow-derived mast cells (BMMC); test: mast cell stimulus-coupled degranulation (β-glucuronidase release); format: cell-based, Balb/C mice; conditions: no stimulus
Description: In another protocol, a population of mast cells was cultivated from murine bone marrow as follows. Briefly, bone marrows from Balb/C mice were flushed from the femur using PBS and a 27 g needle. The cells were cultured in a mixture of ⅔ RPMI-1640 with 19% FBS and cells that secreted IL-3. The bone marrow cells were allowed to differentiate for 18-25 days in the IL-3-containing mixture before being used for experiments. Bone marrow cells cultured in this manner have a phenotype similar to mucosal mast cells and are referred to as bone marrow-derived mast cells (BMMC).
The homogeneity of the in vitro propagated mast cells was checked by conventional flow cytometry techniques and staining for cell-type specific markers. Between days 14 and 21 of propagation, mature mast cells were harvested and prepared for the test cultures. The objective was to assess of the effect of compounds such as dehydroepiandrosterone on mast cell stimulus-coupled degranulation. Prepared mast cells were dispensed into test culture wells at a density of 1×10^7 cells/mL. In control cultures, mast cells were induced to degranulate after cross linking of IgE receptors with IgE antigen-antibody complexes. […] There was no detectable degranulation of mast cells as measured by release of β-glucuronidase from cytosolic storage granules of the cells in the absence of the stimulus. […]

Structure (SMILES): C[C@]12CC[C@H]3[C@@H](CCC4=C[C@H](O)CC[C@@H]43)[C@@H]1CC[C@@H]2O [4-estrene-3α,17β-diol]
- osteoblast and osteocyte apoptosis [1]: reduce apoptosis

Structure (SMILES): C[C@]12CC[C@H]3[C@@H]([C@@H](O)C=C4C[C@H](O)CC[C@@]43C)[C@@H]1C[C@@H](O)[C@@H]2O [androst-5-ene-3α,7β,16α,17β-tetrol]
- degree of sulfation and degree of glucuronidation [2]: low
- reversal of the decrease in osteoprotegerin synthesis [3]: normal osteoprotegerin levels at 10 nM
- course of EAE compared to vehicle-treated mice (EAE): very similar to that observed in the vehicle-treated mice

Structure (SMILES): C[C@]12CC[C@H]3[C@@H]([C@@H](O)C=C4C[C@@H](O)CC[C@@]43C)[C@@H]1C[C@@H](O)[C@@H]2O [androst-5-ene-3β,7β,16α,17β-tetrol]
- IL-6 level in BAL vs vehicle [4]: reduced levels
- MPO level vs vehicle [4]: reduced levels
- TNFα level in BAL vs vehicle [4]: reduced levels
- degree of sulfation and degree of glucuronidation [2]: low
- reversal of the decrease in osteoprotegerin synthesis [3]: normal osteoprotegerin levels at 0.1 μM
- glucose uptake in the gastrocnemius muscle ([5]; ^14C-2-deoxyglucose, p<0.05): more effective
- glucose infusion rate compared to vehicle control ([5]; oral gavage 14 days, insulin 10 mU/kg/min): increased the glucose infusion rate
- course of EAE compared to vehicle-treated mice (EAE): significantly improved course of EAE
- interaction with estrogen receptor-β (estrogen receptor-β): do not interact
- interaction with estrogen receptor-α (estrogen receptor-α): do not interact

Structure (SMILES): C[C@]12CC[C@H](O)CC1=CC[C@@H]1[C@@H]2CC[C@]2(C)C(=O)CC[C@@H]12 [dehydroepiandrosterone]
- degranulation with compound alone [6]: no measurable degranulation

From patent publication US20080221074A1, “Drug Screen and Treatment Method” (priority 2006, published 2008)
